{"source": "patent US9815839B2", "about": "“N-(1-(substituted-phenyl)ethyl)-9H-purin-6-amines as PI3K inhibitors” (Incyte Corporation, priority 2010, dated 2017)", "note": "Counter-ions that a name gives are not always drawn.", "data": [{"target": "T1, PI3Kδ (p110δ/p85α) (Homo sapiens, UniProt O00329)", "T1 construct": "purchased Millipore (Bedford, Mass.)", "T1 sequence (O00329 whole entry, species assumed)": "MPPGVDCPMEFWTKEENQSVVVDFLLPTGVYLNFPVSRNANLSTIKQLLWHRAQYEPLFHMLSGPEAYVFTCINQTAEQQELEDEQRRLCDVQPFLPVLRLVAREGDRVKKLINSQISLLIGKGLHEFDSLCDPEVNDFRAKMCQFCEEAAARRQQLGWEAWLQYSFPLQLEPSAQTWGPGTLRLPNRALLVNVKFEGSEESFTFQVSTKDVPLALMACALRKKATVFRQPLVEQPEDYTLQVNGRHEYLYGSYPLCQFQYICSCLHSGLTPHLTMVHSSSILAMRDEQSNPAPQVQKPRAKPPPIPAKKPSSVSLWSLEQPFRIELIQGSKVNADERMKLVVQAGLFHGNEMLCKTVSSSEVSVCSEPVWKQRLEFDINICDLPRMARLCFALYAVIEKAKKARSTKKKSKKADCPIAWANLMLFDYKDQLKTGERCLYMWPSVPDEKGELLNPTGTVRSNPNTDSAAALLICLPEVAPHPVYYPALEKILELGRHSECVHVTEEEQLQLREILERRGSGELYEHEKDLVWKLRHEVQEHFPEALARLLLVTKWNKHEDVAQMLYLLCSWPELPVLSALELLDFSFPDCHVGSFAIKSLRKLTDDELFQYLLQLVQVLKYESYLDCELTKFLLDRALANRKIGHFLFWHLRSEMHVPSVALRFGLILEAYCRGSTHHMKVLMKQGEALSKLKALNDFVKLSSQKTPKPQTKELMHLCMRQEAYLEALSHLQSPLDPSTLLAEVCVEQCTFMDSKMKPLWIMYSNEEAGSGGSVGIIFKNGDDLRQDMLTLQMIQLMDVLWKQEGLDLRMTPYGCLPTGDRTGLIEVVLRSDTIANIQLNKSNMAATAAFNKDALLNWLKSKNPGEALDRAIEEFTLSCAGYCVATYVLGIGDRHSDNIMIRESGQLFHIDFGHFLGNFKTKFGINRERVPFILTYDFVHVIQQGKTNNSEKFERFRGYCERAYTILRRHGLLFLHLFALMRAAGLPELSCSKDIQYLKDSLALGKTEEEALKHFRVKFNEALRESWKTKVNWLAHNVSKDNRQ", "T1 sequence (P27986 whole entry partner, species assumed)": "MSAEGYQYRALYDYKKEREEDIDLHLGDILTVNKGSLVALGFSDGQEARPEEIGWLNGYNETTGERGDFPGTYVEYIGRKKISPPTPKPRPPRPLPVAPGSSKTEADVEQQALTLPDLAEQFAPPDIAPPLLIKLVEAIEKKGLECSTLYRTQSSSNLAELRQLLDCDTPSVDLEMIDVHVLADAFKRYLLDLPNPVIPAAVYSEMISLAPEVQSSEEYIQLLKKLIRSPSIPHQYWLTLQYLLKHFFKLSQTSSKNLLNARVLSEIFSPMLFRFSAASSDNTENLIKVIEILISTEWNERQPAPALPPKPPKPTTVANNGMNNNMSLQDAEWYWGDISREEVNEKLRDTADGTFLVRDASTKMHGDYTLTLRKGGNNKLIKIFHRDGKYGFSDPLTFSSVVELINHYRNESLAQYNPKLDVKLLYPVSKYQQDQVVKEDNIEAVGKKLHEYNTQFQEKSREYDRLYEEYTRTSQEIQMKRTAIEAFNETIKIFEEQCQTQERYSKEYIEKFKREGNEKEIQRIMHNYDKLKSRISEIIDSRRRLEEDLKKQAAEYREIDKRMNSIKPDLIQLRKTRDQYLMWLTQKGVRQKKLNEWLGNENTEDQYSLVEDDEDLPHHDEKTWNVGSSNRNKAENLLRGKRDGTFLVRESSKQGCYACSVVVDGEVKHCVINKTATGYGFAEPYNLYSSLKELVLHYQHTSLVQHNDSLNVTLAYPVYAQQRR", "assay": "PI3Kδ scintillation proximity assay", "format": "biochemical", "details": "20 μM ATP, 4 nM PI3Kδ", "description": "Example A: PI3Kδ Scintillation Proximity Assay\nMaterials: [γ-^33P]ATP (10 mCi/mL) was purchased from Perkin-Elmer (Waltham, Mass.). Lipid kinase substrate, D-myo-Phosphatidylinositol 4,5-bisphosphate (PtdIns(4,5)P2)D (+)-sn-1,2-di-O-octanoylglyceryl, 3-O-phospho linked (PIP2), CAS 204858-53-7, was purchased from Echelon Biosciences (Salt Lake City, Utah). PI3Kδ (p110δ/p85α) was purchased from Millipore (Bedford, Mass.). ATP, MgCl2, DTT, EDTA, MOPS and CHAPS were purchased from Sigma-Aldrich (St. Louis, Mo.). Wheat Germ Agglutinin (WGA) YSi SPA Scintillation Beads was purchased from GE healthcare life sciences (Piscataway, N.J.).\nThe kinase reaction was conducted in polystyrene 384-well matrix white plate from Thermo Fisher Scientific in a final volume of 25 μL. Inhibitors were first diluted serially in DMSO and added to the plate wells before the addition of other reaction components. The final concentration of DMSO in the assay was 0.5%. The PI3K assays were carried out at room temperature in 20 mM MOPS, pH 6.7, 10 mM MgCl2, 5 mM DTT and CHAPS 0.03%. Reactions were initiated by the addition of ATP, the final reaction mixture consisted of 20 μM PIP2,20 μM ATP, 0.2 μCi [γ-^33P] ATP, 4 nM PI3Kδ. Reactions were incubated for 210 minutes and terminated by the addition of 40 μL SPA beads suspended in quench buffer: 150 mM potassium phosphate pH 8.0, 20% glycerol. 25 mM EDTA, 400 µM ATP. The final concentration of SPA beads is 1.0 mg/mL. After the plate sealing, plates were shaken overnight at room temperature and centrifuged at 1800 rpm for 10 minutes, the radioactivity of the product was determined by scintillation counting on Topcount (Perkin-Elmer). IC50 determination was performed by fitting the curve of percent control activity versus the log of the inhibitor concentration using the GraphPad Prism 3.0 software.", "units": {"IC50": "nM"}, "values": [{"smiles": "CNC(=O)c1ccc(-c2cc(Cl)cc(C(C)Nc3ncnc4[nH]cnc34)c2OC)cc1Cl", "note": "(centres unmarked) [Example 144, 3,5′-dichloro-2′-methoxy-N-methyl-3′-[1-(9H-purin-6-ylamino)ethyl]biphenyl-4-carboxamide]", "IC50": "< 50"}, {"smiles": "COc1c(C(C)Nc2ncnc3[nH]cnc23)cc(F)c(C)c1-c1cnc(N)nc1", "note": "(centres unmarked) [Example 123, N-{1-[3-(2-aminopyrimidin-5-yl)-5-fluoro-2-methoxy-4-methylphenyl]ethyl}-9H-purin-6-amine]", "IC50": "50 to 100"}, {"smiles": "CCC(Nc1ncnc2[nH]cnc12)c1cc(Cl)c(C)c(-c2cncc(F)c2)c1OC", "note": "(centres unmarked) [Example 181, N-{1-[5-chloro-3-(5-fluoropyridin-3-yl)-2-methoxy-4-methylphenyl]propyl}-9H-purin-6-amine bis(2,2,2-trifluoroacetate)]", "IC50": "< 50"}, {"smiles": "COc1c(C(C)Nc2ncnc3[nH]cnc23)cc(Cl)c(Cl)c1C1CN(C(C)C(F)(F)F)C1", "note": "(centres unmarked) [Example 198, N-(1-{4,5-Dichloro-2-methoxy-3-[1-(2,2,2-trifluoro-1-methylethyl)azetidin-3-yl]phenyl}ethyl)-9H-purin-6-amine bistrifluoroacetate]", "IC50": "< 50"}, {"smiles": "COc1c(C(C)Nc2ncnc3[nH]cnc23)cc(Cl)c(Cl)c1C1CN(C2CCC2)C1", "note": "(centres unmarked) [Example 209, N-{1-[4,5-Dichloro-3-(1-cyclobutylazetidin-3-yl)-2-methoxyphenyl]ethyl}-9H-purin-6-amine bistrifluoroacetate]", "IC50": "< 50"}, {"smiles": "COc1c(C(C)Nc2ncnc3[nH]cnc23)cc(Cl)c(C)c1-c1ccc(C(=O)N2CC(C#N)C2)c(F)c1", "note": "(centres unmarked) [Example 63, 1-({3′-Chloro-3-fluoro-6′-methoxy-2′-methyl-5′-[1-(9H-purin-6-ylamino)ethyl]biphenyl-4-yl}carbonyl)azetidine-3-carbonitrile]", "IC50": "< 50"}, {"smiles": "COc1c(C(C)Nc2ncnc3[nH]cnc23)cc(Cl)c(C)c1-c1ccc(C(C)(C)OC)nc1", "note": "(centres unmarked) [Example 185, N-(1-{5-chloro-2-methoxy-3-[6-(1-methoxy-1-methylethyl)pyridin-3-yl]-4-methylphenyl}ethyl)-9H-purin-6-amine bis(2,2,2-trifluoroacetate)]", "IC50": "< 50"}, {"smiles": "COc1c(C(C)Nc2ncnc3[nH]cnc23)cc(F)c(C)c1-c1ccc(S(C)(=O)=O)cc1", "note": "(centres unmarked) [Example 118, N-{1-[5-Fluoro-2-methoxy-6-methyl-4′-(methylsulfonyl)biphenyl-3-yl]ethyl}-9H-purin-6-amine]", "IC50": "50 to 100"}, {"smiles": "COc1c(C(C)Nc2ncnc3[nH]cnc23)cc(Cl)c(C)c1-c1ccc(C(=O)N(C)C)c(F)c1", "note": "(centres unmarked) [Example 65, 3′-chloro-3-fluoro-6′-methoxy-N,N,2′-trimethyl-5′-[1-(9H-purin-6-ylamino)ethyl]biphenyl-4-carboxamide]", "IC50": "< 50"}, {"smiles": "COc1ccc(-c2c(C)c(Cl)cc(C(C)Nc3ncnc4[nH]cnc34)c2OC)cc1C", "note": "(centres unmarked) [Example 102, N-[1-(5-chloro-2,4′-dimethoxy-3′,6-dimethylbiphenyl-3-yl)ethyl]-9H-purin-6-amine]", "IC50": "100 to 250"}, {"smiles": "COc1cncc(-c2c(C)c(Cl)cc(C(C)Nc3ncnc4[nH]cnc34)c2OC)c1", "note": "(single isomer, unassigned) [Example 113, N-{1-[5-Chloro-2-methoxy-3-(5-methoxypyridin-3-yl)-4-methylphenyl]ethyl}-9H-purin-6-amine]", "IC50": "< 50"}, {"smiles": "Cc1c(Cl)cc(C(C)Nc2ncnc3[nH]cnc23)c(OCCN2CCOCC2)c1-c1cncc(S(C)(=O)=O)c1", "note": "(centres unmarked) [Example 156, N-{1-[5-chloro-4-methyl-3-[5-(methyl-sulfonyl)-pyridin-3-yl]-2-(2-morpholin-4-ylethoxy)-phenyl]-ethyl}-9H-purin-6-amine]", "IC50": "< 50"}, {"smiles": "Cc1c(Cl)cc(C(C)Nc2ncnc3[nH]cnc23)c(OCCN2CCOCC2)c1-c1cc(F)cc(C(N)=O)c1", "note": "(centres unmarked) [Example 159, 3′-chloro-5-fluoro-2′-methyl-6′-(2-morpholin-4-ylethoxy)-5′-[1-(9H-purin-6-yl-amino)ethyl]-biphenyl-3-carboxamide]", "IC50": "< 50"}, {"smiles": "COc1c(C(C)Nc2ncnc3[nH]cnc23)cc(Cl)c(C)c1-c1cnn(C2(CC#N)CC(C#N)C2)c1", "note": "(single isomer, unassigned) [Example 54, 3-(4-{3-chloro-6-methoxy-2-methyl-5-[1-(9H-purin-6-ylamino)ethyl]phenyl}-1H-pyrazol-1-yl)-3-(cyanomethyl)cyclobutanecarbonitrile]", "IC50": "< 50"}, {"smiles": "COc1c(C(C)Nc2ncnc3[nH]cnc23)cc(Cl)c(C)c1-c1cncc(C)c1", "note": "(centres unmarked) [Example 55, N-{1-[5-chloro-2-methoxy-4-methyl-3-(5-methylpyridin-3-yl)phenyl]ethyl}-9H-purin-6-amine]", "IC50": "< 50"}, {"smiles": "COC(=O)N1CC(c2c(C)c(Cl)cc(C(C)Nc3ncnc4[nH]cnc34)c2OC)C1", "note": "(centres unmarked) [Example 167, Methyl 3-{3-chloro-6-methoxy-2-methyl-5-[1-(9H-purin-6-ylamino)ethyl]phenyl}azetidine-1-carboxylate trifluoroacetate]", "IC50": "< 50"}, {"smiles": "COc1c(C(C)Nc2ncnc3[nH]cnc23)cc(F)c(C)c1-c1cnn(C)c1", "note": "(centres unmarked) [Example 121, N-{1-[5-fluoro-2-methoxy-4-methyl-3-(1-methyl-1H-pyrazol-4-yl)phenyl]ethyl}-9H-purin-6-amine]", "IC50": "< 50"}, {"smiles": "COc1c(-c2cc(F)nc(F)c2)cc(Cl)cc1C(C)Nc1ncnc2[nH]cnc12", "note": "(centres unmarked) [Example 141, N-{1-[5-chloro-3-(2,6-difluoropyridin-4-yl)-2-methoxyphenyl]ethyl}-9H-purin-6-amine]", "IC50": "250 to 500"}, {"smiles": "COc1ccc(-c2c(C)c(Cl)cc(C(C)Nc3ncnc4[nH]cnc34)c2OCCN2CCOCC2)cc1OC", "note": "(centres unmarked) [Example 153, N-{1-[5-chloro-3′,4′-dimethoxy-6-methyl-2-(2-mor-pholin-4-ylethoxy)-biphenyl-3-yl]ethyl}-9H-purin-6-amine]", "IC50": "< 50"}, {"smiles": "COc1c(C(C)Nc2ncnc3[nH]cnc23)cc(Cl)c(C)c1-c1ccc(C(N)=O)c(F)c1", "note": "(centres unmarked) [Example 62, 3′-Chloro-3-fluoro-6′-methoxy-2′-methyl-5′-[1-(9H-purin-6-ylamino)ethyl]biphenyl-4-carboxamide]", "IC50": "< 50"}, {"smiles": "Cc1c(Cl)cc(C(C)Nc2ncnc3[nH]cnc23)c(OCCN2CCOCC2)c1-c1cnc(N)nc1", "note": "(centres unmarked) [Example 149, N-{1-[3-(2-amino-pyrimidin-5-yl)-5-chloro-4-methyl-2-(2-morpholin-4-ylethoxy)-phenyl]ethyl}-9H-purin-6-amine]", "IC50": "< 50"}, {"smiles": "CCOc1cccc(-c2c(C)c(F)cc(C(C)Nc3ncnc4[nH]cnc34)c2OC)c1", "note": "(centres unmarked) [Example 119, N-[1-(3′-ethoxy-5-fluoro-2-methoxy-6-methylbiphenyl-3-yl)ethyl]-9H-purin-6-amine]", "IC50": "100 to 250"}, {"smiles": "COc1ncc(-c2c(C)c(Cl)cc(C(C)Nc3ncnc4[nH]cnc34)c2OCCN2CCOCC2)cc1F", "note": "(centres unmarked) [Example 160, N-{1-[5-chloro-3-(5-fluoro-6-methoxy-pyridin-3-yl)-4-methyl-2-(2-mor-pholin-4-ylethoxy)-phenyl]-ethyl}-9H-purin-6-amine]", "IC50": "< 50"}, {"smiles": "Cc1c(Cl)cc(C(C)Nc2ncnc3[nH]cnc23)c(OCCN2CCOCC2)c1-c1cncc(C(=O)N2CCOCC2)c1", "note": "(centres unmarked) [Example 155, N-{1-[5-chloro-4-methyl-3-[5-(morpholin-4-ylcarbonyl)-pyridin-3-yl]-2-(2-morpholin-4-ylethoxy)-phenyl]-ethyl}-9H-purin-6-amine]", "IC50": "< 50"}, {"smiles": "COc1c(C(C)Nc2ncnc3[nH]cnc23)cc(Cl)c(C)c1-c1cccc(NC(C)=O)c1", "note": "(centres unmarked) [Example 104, N-{3′-chloro-6′-methoxy-2′-methyl-5′-[1-(9H-purin-6-ylamino)ethyl]biphenyl-3-yl}acetamide]", "IC50": "< 50"}, {"smiles": "COc1c(C(C)Nc2ncnc3[nH]cnc23)cc(Cl)c(C)c1C1CN(S(C)(=O)=O)C1", "note": "(centres unmarked) [Example 169, N-(1-{5-Chloro-2-methoxy-4-methyl-3-[1-(methylsulfonyl)azetidin-3-yl]phenyl}ethyl)-9H-purin-6-amine trifluoroacetate]", "IC50": "< 50"}, {"smiles": "COc1cccc(-c2c(C)c(Cl)cc(C(C)Nc3ncnc4[nH]cnc34)c2OCCN2CCOCC2)c1", "note": "(centres unmarked) [Example 150, N-{1-[5-chloro-3′-methoxy-6-methyl-2-(2-mor-pholin-4-ylethoxy)-biphenyl-3-yl]ethyl}-9H-purin-6-amine]", "IC50": "< 50"}, {"smiles": "COc1ncc(-c2cc(Cl)cc(C(C)Nc3ncnc4[nH]cnc34)c2-c2cc(F)cc(F)c2)cn1", "note": "(centres unmarked) [Example 129, N-{1-[4-chloro-3′,5′-difluoro-6-(2-methoxy-pyrimidin-5-yl)biphenyl-2-yl]ethyl}-9H-purin-6-amine]", "IC50": "< 50"}, {"smiles": "CCOc1c(C(C)Nc2ncnc3[nH]cnc23)cc(Cl)c(C)c1C1CN(C)C1", "note": "(centres unmarked) [Example 173, N-{1-[5-chloro-2-ethoxy-4-methyl-3-(1-methylazetidin-3-yl)phenyl]ethyl}-9H-purin-6-amine]", "IC50": "< 50"}]}]}
